Reference: PubChem BioAssay (NCI)
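Results reflect a 48-hour exposure of cells in 96-well plates to compound at five concentrations. GI50 = concentration required for 50% inhibition of growth. TGI is the concentration that stops growth completely.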

Assays:
Experiment in all cases: growth of human tumour cells (NCI), 48 h
OVCAR-5 ovarian = system: OVCAR-5 ovarian
CCRF-CEM leukemia = system: CCRF-CEM leukemia
HCT-116 colon = system: HCT-116 colon
SK-MEL-5 melanoma = system: SK-MEL-5 melanoma
K-562 leukemia = system: K-562 leukemia
SF-295 CNS = system: SF-295 CNS
HT29 colon = system: HT29 colon
EKVX NSCLC = system: EKVX NSCLC
ACHN renal = system: ACHN renal
CAKI-1 renal = system: CAKI-1 renal

CCCCNC(=O)Oc1ccc(/C(=C(/CC)Cc2ccccc2)c2ccc(OCCN3CCCCCC3)cc2)cc1
GI50 (OVCAR-5 ovarian): 96.3 µM | TGI (OVCAR-5 ovarian): > 100 µM | GI50 (CCRF-CEM leukemia): 31.9 µM | TGI (CCRF-CEM leukemia): 93.5 µM | GI50 (HCT-116 colon): 15.6 µM | TGI (HCT-116 colon): 29 µM | GI50 (SK-MEL-5 melanoma): 19.9 µM | TGI (SK-MEL-5 melanoma): 39.1 µM | GI50 (K-562 leukemia): 16.7 µM | TGI (K-562 leukemia): 46.9 µM | GI50 (SF-295 CNS): 18.3 µM | TGI (SF-295 CNS): 38.4 µM | GI50 (HT29 colon): 18.1 µM | TGI (HT29 colon): 36.3 µM | GI50 (EKVX NSCLC): 76.8 µM | TGI (EKVX NSCLC): > 100 µM | GI50 (ACHN renal): 18.6 µM | TGI (ACHN renal): 41.6 µM | GI50 (CAKI-1 renal): 19.3 µM | TGI (CAKI-1 renal): 44.7 µM

COc1cc(/C=C2\CC3C4CC=C5C[C@@H](O)CC[C@]5(C)C4CC[C@]3(C)C2=O)ccc1OCCCn1ccnc1 (some centres undefined)
GI50 (OVCAR-5 ovarian): 20.2 µM | TGI (OVCAR-5 ovarian): 41.9 µM | GI50 (CCRF-CEM leukemia): 18 µM | TGI (CCRF-CEM leukemia): 34.8 µM | GI50 (HCT-116 colon): 16.1 µM | TGI (HCT-116 colon): 33.4 µM | GI50 (SK-MEL-5 melanoma): 14.1 µM | TGI (SK-MEL-5 melanoma): 27 µM | GI50 (K-562 leukemia): 17.6 µM | TGI (K-562 leukemia): 39.2 µM | GI50 (SF-295 CNS): 13.4 µM | TGI (SF-295 CNS): 27.5 µM | GI50 (HT29 colon): 13.7 µM | TGI (HT29 colon): > 100 µM | GI50 (EKVX NSCLC): 17 µM | TGI (EKVX NSCLC): 47.4 µM | GI50 (ACHN renal): 11.2 µM | TGI (ACHN renal): 24.7 µM | GI50 (CAKI-1 renal): 19.1 µM | TGI (CAKI-1 renal): 39.8 µM

COc1ccc(N2C(=O)C3c4[nH]c5ccccc5c4C4CCCCCCC4C3C2=O)cc1 (centres undefined)
TGI (OVCAR-5 ovarian): > 100 µM | TGI (CCRF-CEM leukemia): 21.5 µM | TGI (HCT-116 colon): 15.3 µM | TGI (SK-MEL-5 melanoma): 61.9 µM | TGI (K-562 leukemia): > 75.2 µM | TGI (SF-295 CNS): 26 µM | TGI (HT29 colon): > 100 µM | TGI (EKVX NSCLC): 41.4 µM | TGI (ACHN renal): 18.7 µM | TGI (CAKI-1 renal): 39.5 µM

CCC[CH2][Sn]1([CH2]CCC)[O]C(=O)c2ccc(N)cc2[O]1
GI50 (OVCAR-5 ovarian): 1.77 µM | TGI (OVCAR-5 ovarian): 3.3 µM | GI50 (CCRF-CEM leukemia): 0.0357 µM | TGI (CCRF-CEM leukemia): 1.85 µM | GI50 (HCT-116 colon): 0.965 µM | TGI (HCT-116 colon): 2.19 µM | GI50 (SK-MEL-5 melanoma): 0.692 µM | TGI (SK-MEL-5 melanoma): 2.15 µM | GI50 (K-562 leukemia): 0.111 µM | TGI (K-562 leukemia): 8.5 µM | GI50 (SF-295 CNS): 1.41 µM | TGI (SF-295 CNS): 2.76 µM | GI50 (HT29 colon): 1.33 µM | TGI (HT29 colon): 2.73 µM | GI50 (EKVX NSCLC): 0.285 µM | TGI (EKVX NSCLC): 2.47 µM | GI50 (ACHN renal): 0.655 µM | TGI (ACHN renal): 1.92 µM | GI50 (CAKI-1 renal): 0.119 µM | TGI (CAKI-1 renal): 1.27 µM

Cc1ccc2sc3ccc(N)cc3c(=O)c2c1
TGI (OVCAR-5 ovarian): > 100 µM | TGI (CCRF-CEM leukemia): > 100 µM | TGI (HCT-116 colon): > 100 µM | TGI (SK-MEL-5 melanoma): > 100 µM | TGI (K-562 leukemia): > 100 µM | TGI (SF-295 CNS): > 100 µM | TGI (HT29 colon): > 100 µM | TGI (EKVX NSCLC): > 100 µM | TGI (ACHN renal): > 100 µM | TGI (CAKI-1 renal): > 100 µM

O=C(N/N=C/c1ccc(Cl)cc1)c1[nH]c2ccc(Cl)cc2c1-c1ccccc1
GI50 (OVCAR-5 ovarian): 0.573 µM | TGI (OVCAR-5 ovarian): > 100 µM | GI50 (CCRF-CEM leukemia): 0.0986 µM | GI50 (HCT-116 colon): 0.114 µM | TGI (HCT-116 colon): 1.56 µM | GI50 (SK-MEL-5 melanoma): 0.214 µM | TGI (SK-MEL-5 melanoma): 0.469 µM | GI50 (K-562 leukemia): 0.206 µM | TGI (K-562 leukemia): 12.7 µM | GI50 (SF-295 CNS): 0.0815 µM | TGI (SF-295 CNS): 2.58 µM | GI50 (HT29 colon): 0.122 µM | TGI (HT29 colon): > 36 µM | GI50 (EKVX NSCLC): 0.317 µM | TGI (EKVX NSCLC): > 100 µM | GI50 (ACHN renal): 0.199 µM | TGI (ACHN renal): > 45.3 µM | GI50 (CAKI-1 renal): 0.185 µM | TGI (CAKI-1 renal): 0.645 µM

COc1ccc([C@@H](O)c2cc(-c3ncnc4cc(N5CCOCC5)ccc34)c(F)cc2Cl)nn1
GI50 (OVCAR-5 ovarian): 7.2 µM | TGI (OVCAR-5 ovarian): > 100 µM | GI50 (CCRF-CEM leukemia): 3.5 µM | TGI (CCRF-CEM leukemia): 26.7 µM | GI50 (HCT-116 colon): 3.29 µM | TGI (HCT-116 colon): 21.4 µM | GI50 (SK-MEL-5 melanoma): 1.99 µM | TGI (SK-MEL-5 melanoma): 8.1 µM | GI50 (K-562 leukemia): 3.78 µM | TGI (K-562 leukemia): > 100 µM | GI50 (SF-295 CNS): 1.48 µM | TGI (SF-295 CNS): 25.8 µM | GI50 (HT29 colon): 1.97 µM | TGI (HT29 colon): 20.9 µM | GI50 (EKVX NSCLC): 5.35 µM | TGI (EKVX NSCLC): 42.9 µM | GI50 (ACHN renal): 2.53 µM | TGI (ACHN renal): 91 µM | GI50 (CAKI-1 renal): 1.99 µM | TGI (CAKI-1 renal): > 100 µM

COc1cc(/C=C2\CN(C(=O)CCN3CCC(=NO)CC3)C/C(=C\c3cc(OC)c(OC)c(OC)c3)C2=O)cc(OC)c1OC
GI50 (OVCAR-5 ovarian): 0.874 µM | TGI (OVCAR-5 ovarian): 2.28 µM | GI50 (CCRF-CEM leukemia): 0.266 µM | TGI (CCRF-CEM leukemia): 1.6 µM | GI50 (HCT-116 colon): 0.206 µM | TGI (HCT-116 colon): 0.467 µM | GI50 (SK-MEL-5 melanoma): 0.302 µM | TGI (SK-MEL-5 melanoma): 0.927 µM | GI50 (K-562 leukemia): 0.301 µM | TGI (K-562 leukemia): > 100 µM | GI50 (SF-295 CNS): 0.656 µM | TGI (SF-295 CNS): 1.67 µM | GI50 (HT29 colon): 0.369 µM | TGI (HT29 colon): 1.51 µM | GI50 (EKVX NSCLC): 1.82 µM | TGI (EKVX NSCLC): 4.81 µM | GI50 (ACHN renal): 0.837 µM | TGI (ACHN renal): 2.51 µM | GI50 (CAKI-1 renal): 0.837 µM | TGI (CAKI-1 renal): 2.34 µM

Clc1ccc(-c2c(C3=NCCN3)nnn2-c2ccccc2)cc1
TGI (OVCAR-5 ovarian): > 100 µM | TGI (CCRF-CEM leukemia): > 100 µM | TGI (HCT-116 colon): > 100 µM | TGI (SK-MEL-5 melanoma): > 100 µM | TGI (K-562 leukemia): > 100 µM | TGI (SF-295 CNS): > 100 µM | TGI (HT29 colon): > 100 µM | TGI (EKVX NSCLC): > 100 µM | TGI (ACHN renal): > 100 µM | TGI (CAKI-1 renal): > 100 µM

COc1cc(/C=C/c2ccc(OC)c(OC)c2OC)cc(OC)c1OC
TGI (OVCAR-5 ovarian): 74.4 µM | TGI (CCRF-CEM leukemia): 85.8 µM | TGI (HCT-116 colon): 27.9 µM | TGI (SK-MEL-5 melanoma): 28.5 µM | TGI (K-562 leukemia): > 69.3 µM | TGI (SF-295 CNS): 55.7 µM | TGI (HT29 colon): > 63.9 µM | TGI (EKVX NSCLC): > 70.8 µM | TGI (ACHN renal): > 92.2 µM | TGI (CAKI-1 renal): > 96.4 µM

Oc1c(CN2CCCC2)cc(CSCc2ccccc2)c2cccnc12
GI50 (OVCAR-5 ovarian): 4.51 µM | TGI (OVCAR-5 ovarian): 17.1 µM | GI50 (CCRF-CEM leukemia): 0.429 µM | TGI (CCRF-CEM leukemia): 10.2 µM | GI50 (HCT-116 colon): 0.694 µM | TGI (HCT-116 colon): 10.1 µM | GI50 (SK-MEL-5 melanoma): 0.35 µM | TGI (SK-MEL-5 melanoma): 1.6 µM | GI50 (K-562 leukemia): 0.551 µM | TGI (K-562 leukemia): 10.6 µM | GI50 (SF-295 CNS): 2.19 µM | TGI (SF-295 CNS): 8.13 µM | GI50 (HT29 colon): 3.88 µM | TGI (HT29 colon): 14 µM | GI50 (EKVX NSCLC): 1.99 µM | TGI (EKVX NSCLC): 11.9 µM | GI50 (ACHN renal): 0.291 µM | TGI (ACHN renal): 10.2 µM | GI50 (CAKI-1 renal): 0.0774 µM | TGI (CAKI-1 renal): 1.47 µM
